Assay results: the supplement of paper PMC10307832

Columns and labels:
Assay in all cases: relative viability (nuclei count vs DMSO), 5 days (fraction); higher = more cells survive
[1] = tested on: NCI-H1944
Outline: (§1)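 Lung cancer cell lines in 1536-well plates were dosed by pin tool the day after seeding, either with one drug alone or with a fixed anchor-drug dose plus five library-drug doses (not always all listed) in √10 steps. After 5 days, cells were fixed and their nuclei stained in one step (final 0.05% Triton X-100, 1% formaldehyde, 1 ug/ml Hoechst), then counted on 4× images. Relative viability is the nuclei count in treated wells divided by that in vehicle wells. Values are medians of duplicate plates.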

[2] = tested on: NCI-H1975
Outline: as §1

[3] = tested on: NCI-H1734
Outline: as §1

[4] = tested on: NCI-H2170
Outline: as §1

[5] = tested on: PC-3 [JPC-3]
Outline: as §1

[6] = tested on: A-427
Outline: as §1

[7] = tested on: EKVX
Outline: as §1

[8] = tested on: LOU-NH91
Outline: as §1

[9] = tested on: NCI-H441
Outline: as §1

[10] = tested on: SW 900
Outline: as §1

[11] = tested on: NCI-H520
Outline: as §1

[12] = tested on: HCC-366
Outline: as §1

[13] = tested on: NCI-H1666
Outline: as §1

[14] = tested on: ChaGo-K-1
Outline: as §1

[15] = tested on: COR-L 105
Outline: as §1

[16] = tested on: NCI-H1755
Outline: as §1

[17] = tested on: LK-2
Outline: as §1

[18] = tested on: SK-MES-1
Outline: as §1

[19] = tested on: NCI-H23
Outline: as §1

[20] = tested on: NCI-H596
Outline: as §1

[21] = tested on: H3255
Outline: as §1

[22] = tested on: EMC-BAC-2
Outline: as §1

C[C@@H]1CN(CC(=O)Nc2ccc3c(c2)Cc2cccc(-c4cc(=O)cc(N5CCOCC5)o4)c2S3)C[C@H](C)O1 + Cc1cc(Nc2cc(N3CCN(C)CC3)nc(Sc3ccc(NC(=O)C4CC4)cc3)n2)n[nH]1 [Tozasertib] (partner 0.1 µM)
relative viability ([1]; first compound 0.04 µM): 0.273 | relative viability ([1]; first compound 0.1265 µM): 0.255 | relative viability ([1]; first compound 0.4 µM): 0.263 | relative viability ([1]; first compound 4 µM): 0.23 | relative viability ([2]; first compound 0.04 µM): 0.781 | relative viability ([2]; first compound 0.1265 µM): 0.675 | relative viability ([2]; first compound 0.4 µM): 0.611 | relative viability ([2]; first compound 4 µM): 0.193 | relative viability ([3]; first compound 0.04 µM): 0.286 | relative viability ([3]; first compound 0.1265 µM): 0.238 | relative viability ([3]; first compound 0.4 µM): 0.261 | relative viability ([3]; first compound 4 µM): 0.205 | relative viability ([4]; first compound 0.04 µM): 0.708 | relative viability ([4]; first compound 0.1265 µM): 0.764 | relative viability ([4]; first compound 0.4 µM): 0.719 | relative viability ([4]; first compound 4 µM): 0.614 | relative viability ([5]; first compound 0.04 µM): 0.883 | relative viability ([5]; first compound 0.1265 µM): 0.862 | relative viability ([5]; first compound 0.4 µM): 0.871 | relative viability ([5]; first compound 4 µM): 0.74 | relative viability ([6]; first compound 0.04 µM): 0.176 | relative viability ([6]; first compound 0.1265 µM): 0.214 | relative viability ([6]; first compound 0.4 µM): 0.214 | relative viability ([6]; first compound 4 µM): 0.205 | relative viability ([7]; first compound 0.04 µM): 0.389 | relative viability ([7]; first compound 0.1265 µM): 0.44 | relative viability ([7]; first compound 0.4 µM): 0.432 | relative viability ([7]; first compound 4 µM): 0.305 | relative viability ([8]; first compound 0.04 µM): 0.605 | relative viability ([8]; first compound 0.1265 µM): 0.649 | relative viability ([8]; first compound 0.4 µM): 0.69 | relative viability ([8]; first compound 4 µM): 0.62 | relative viability ([9]; first compound 0.04 µM): 0.601 | relative viability ([9]; first compound 0.1265 µM): 0.678 | relative viability ([9]; first compound 0.4 µM): 0.528 | relative viability ([9]; first compound 4 µM): 0.49 | relative viability ([10]; first compound 0.04 µM): 0.463 | relative viability ([10]; first compound 0.1265 µM): 0.579 | relative viability ([10]; first compound 0.4 µM): 0.476 | relative viability ([10]; first compound 4 µM): 0.335 | relative viability ([11]; first compound 0.04 µM): 0.474 | relative viability ([11]; first compound 0.1265 µM): 0.454 | relative viability ([11]; first compound 0.4 µM): 0.356 | relative viability ([11]; first compound 4 µM): 0.448 | relative viability ([12]; first compound 0.04 µM): 0.165 | relative viability ([12]; first compound 0.1265 µM): 0.132 | relative viability ([12]; first compound 0.4 µM): 0.0609 | relative viability ([12]; first compound 4 µM): 0.0509 | relative viability ([13]; first compound 0.04 µM): 0.637 | relative viability ([13]; first compound 0.1265 µM): 0.689 | relative viability ([13]; first compound 0.4 µM): 0.622 | relative viability ([13]; first compound 4 µM): 0.43 | relative viability ([14]; first compound 0.04 µM): 0.264 | relative viability ([14]; first compound 0.1265 µM): 0.209 | relative viability ([14]; first compound 0.4 µM): 0.226 | relative viability ([14]; first compound 4 µM): 0.173 | relative viability ([15]; first compound 0.04 µM): 0.321 | relative viability ([15]; first compound 0.1265 µM): 0.332 | relative viability ([15]; first compound 0.4 µM): 0.352 | relative viability ([15]; first compound 4 µM): 0.296 | relative viability ([16]; first compound 0.04 µM): 0.603 | relative viability ([16]; first compound 0.1265 µM): 0.582 | relative viability ([16]; first compound 0.4 µM): 0.595 | relative viability ([16]; first compound 4 µM): 0.466 | relative viability ([17]; first compound 0.1265 µM): 0.174 | relative viability ([17]; first compound 0.4 µM): 0.185 | relative viability ([17]; first compound 4 µM): 0.17 | relative viability ([18]; first compound 0.04 µM): 1.09 | relative viability ([18]; first compound 0.1265 µM): 0.852 | relative viability ([18]; first compound 0.4 µM): 0.826 | relative viability ([18]; first compound 4 µM): 0.647 | relative viability ([19]; first compound 0.04 µM): 0.362 | relative viability ([19]; first compound 0.1265 µM): 0.308 | relative viability ([19]; first compound 0.4 µM): 0.348 | relative viability ([19]; first compound 4 µM): 0.198 | relative viability ([20]; first compound 0.04 µM): 0.934 | relative viability ([20]; first compound 0.1265 µM): 1.13 | relative viability ([20]; first compound 0.4 µM): 0.759 | relative viability ([20]; first compound 4 µM): 0.762 | relative viability ([21]; first compound 0.04 µM): 0.694 | relative viability ([21]; first compound 0.1265 µM): 0.606 | relative viability ([21]; first compound 0.4 µM): 0.625 | relative viability ([21]; first compound 4 µM): 0.492 | relative viability ([22]; first compound 0.04 µM): 0.257 | relative viability ([22]; first compound 0.1265 µM): 0.29 | relative viability ([22]; first compound 0.4 µM): 0.294 | relative viability ([22]; first compound 4 µM): 0.264
